Test results: US20110118298A1, “COMPOSITIONS, KITS, AND METHODS FOR IDENTIFICATION, ASSESSMENT, PREVENTION, AND THERAPY OF CANCER” (INFINITY PHARMACEUTICALS, INC., priority 2009, published 2011)
Where a name gives a salt, the structure may show the parent alone.

Assays:
carcinoid cell lines = assay: Carcinoid cell line panel, growth inhibition; format: cell-based; settings: units given in the value; read-out: GI50 values, all carcinoid cell lines tested
Procedure: Cell lines BON-1 (a metastatic cell originating from the pancreas), H-720 (a carcinoid cell originating from the lung), QGP-1 (originating from a carcinoma of pancreatic islet cells) and HC45 (a carcinoid cell originating from the ileum) were grown in RPMI-1640 medium supplemented with 10% fetal bovine serum, 1 μg/ml streptomycin and 1 μg/ml penicillin. All cell lines were tested for mycoplasma and maintained at 37° C. in 5% CO2 atmosphere.
Cells were seeded at 10,000 cells/well in 96 well plates for 24 hours and subsequently incubated with increasing concentrations of IPI-504 for 72 hrs, and viability studies were performed using the vital mitochondrial function stain Cell Titer Glow kit (Promega, Madison, Wis.). The data were normalized with respect to DMSO vehicle control to generate growth inhibition GI50 values.
In addition, GI50 values (i.e., the concentration of compound needed to reduce the growth of treated cells to half that of untreated cells) for 17-AG, IPI-504, SNX-2112 and NVP-AUY922 are provided in Table 6. All carcinoid cell lines tested were sensitive to IPI-504 with GI50 values between 10 nM and 1 μM Table 6).

[1] = Phase II study of IPI-504 monotherapy in advanced NSCLC: adverse events and laboratory abnormalities; format: in vivo, human
Procedure: Treatment consisted of a 30-minute infusion of intravenous IPI-504 on days 1, 4, 8 and 11 of a 21-day cycle. Therapy continued until progressive disease (PD), intolerable side effects, or elective withdrawal. A total of 76 patients were enrolled. The starting dose was 400 mg/m^2 for 75 patients. In April 2009, the dose for patients who were on study (19 patients) was lowered to 225 mg/m^2, due to hepatotoxicities observed at the 400 mg/m^2 dose in a separate trial of IPI-504 in patients with gastrointestinal stromal tumors (GIST) (Demetri G. D. et al. Final results from a phase III study of IPI-504 (retaspimycin hydrochloride) versus placebo in patients with gastrointestinal stromal tumors (GIST) following failure of kinase inhibitor therapies. Paper presented at: Gastrointestinal Cancers Symposium; Jan. 22-24, 2010, 2010; Orlando, Fla.), and the last enrolled patient started at a dose of 225 mg/m^2.
All patients were assessed for safety by history, physical examination, blood chemistries, liver function tests and blood counts, at baseline and prior to each infusion. Amylase and lipase were assessed if there were symptoms of pancreatitis. Adverse events were graded using the NCl common toxicity criteria version 3.0 (NCl. Common terminology criteria for adverse events (CTCAE) version 3.0 Aug. 9, 2006). Slit lamp eye examinations were performed during screening and electrocardiograms were obtained during screening and before and after the first infusion, to evaluate for keratitis and QTc prolongation, respectively. Radiographic evaluation of tumor response by CT-scan was performed after every 2 cycles. All films were reviewed and independently assessed by a central radiology core laboratory.
Summary statistics were used to describe safety and included all patients treated with IPI-504. PFS was defined as the time from enrollment to progressive disease or death, censored at the last known follow-up, and was calculated with the Kaplan-Meier method, following the intent-to-treat principle.

[2] = maximum post-baseline grade based on laboratory values

C=CCNc1c(O)cc2c(O)c1C[C@@H](C)C[C@H](OC)[C@H](O)[C@@H](C)/C=C(\C)[C@H](OC(N)=O)[C@@H](OC)/C=C\C=C(/C)C(=O)N2 [IPI-504, retaspimycin hydrochloride]
GI50 (carcinoid cell lines): 10 to 1000 nM
Abdominal pain: patients with Grade 1 or 2 event ([1]; 76 patients): 18 (23.7) n (%)
Abdominal pain: patients with any event ([1]; 76 patients): 18 (23.7) n (%)
Abdominal pain: patients with ≧Grade 3 event ([1]; 76 patients): 1 (1.3) n (%)
Anorexia: patients with Grade 1 or 2 event ([1]; 76 patients): 18 (23.7) n (%)
Anorexia: patients with any event ([1]; 76 patients): 19 (25.0) n (%)
Anorexia: patients with ≧Grade 3 event ([1]; 76 patients): 4 (5.3) n (%)
Arthralgia: patients with Grade 1 or 2 event ([1]; 76 patients): 17 (22.4) n (%)
Arthralgia: patients with any event ([1]; 76 patients): 19 (25.0) n (%)
Arthralgia: patients with ≧Grade 3 event ([1]; 76 patients): 2 (2.6) n (%)
Back pain: patients with Grade 1 or 2 event ([1]; 76 patients): 16 (21.1) n (%)
Back pain: patients with any event ([1]; 76 patients): 16 (21.1) n (%)
Back pain: patients with ≧Grade 3 event ([1]; 76 patients): 0 (0.0) n (%)
Constipation: patients with Grade 1 or 2 event ([1]; 76 patients): 18 (23.7) n (%)
Constipation: patients with any event ([1]; 76 patients): 18 (23.7) n (%)
Constipation: patients with ≧Grade 3 event ([1]; 76 patients): 2 (2.6) n (%)
Cough: patients with Grade 1 or 2 event ([1]; 76 patients): 24 (31.6) n (%)
Cough: patients with any event ([1]; 76 patients): 24 (31.6) n (%)
Cough: patients with ≧Grade 3 event ([1]; 76 patients): 2 (2.6) n (%)
Dehydration: patients with Grade 1 or 2 event ([1]; 76 patients): 11 (14.5) n (%)
Dehydration: patients with any event ([1]; 76 patients): 14 (18.4) n (%)
Dehydration: patients with ≧Grade 3 event ([1]; 76 patients): 3 (3.9) n (%)
Diarrhoea: patients with Grade 1 or 2 event ([1]; 76 patients): 37 (48.7) n (%)
Diarrhoea: patients with any event ([1]; 76 patients): 40 (52.6) n (%)
Diarrhoea: patients with ≧Grade 3 event ([1]; 76 patients): 8 (10.5) n (%)
Dizziness: patients with Grade 1 or 2 event ([1]; 76 patients): 12 (15.8) n (%)
Dizziness: patients with any event ([1]; 76 patients): 12 (15.8) n (%)
Dizziness: patients with ≧Grade 3 event ([1]; 76 patients): 0 (0.0) n (%)
Dyspnoea: patients with Grade 1 or 2 event ([1]; 76 patients): 15 (19.7) n (%)
Dyspnoea: patients with any event ([1]; 76 patients): 18 (23.7) n (%)
Dyspnoea: patients with ≧Grade 3 event ([1]; 76 patients): 6 (7.9) n (%)
Fatigue: patients with Grade 1 or 2 event ([1]; 76 patients): 41 (53.9) n (%)
Fatigue: patients with any event ([1]; 76 patients): 44 (57.9) n (%)
Fatigue: patients with ≧Grade 3 event ([1]; 76 patients): 6 (7.9) n (%)
Headache: patients with Grade 1 or 2 event ([1]; 76 patients): 19 (25.0) n (%)
Headache: patients with any event ([1]; 76 patients): 19 (25.0) n (%)
Headache: patients with ≧Grade 3 event ([1]; 76 patients): 0 (0.0) n (%)
Infusion site pain: patients with Grade 1 or 2 event ([1]; 76 patients): 15 (19.7) n (%)
Infusion site pain: patients with any event ([1]; 76 patients): 15 (19.7) n (%)
Infusion site pain: patients with ≧Grade 3 event ([1]; 76 patients): 0 (0.0) n (%)
Insomnia: patients with Grade 1 or 2 event ([1]; 76 patients): 12 (15.8) n (%)
Insomnia: patients with any event ([1]; 76 patients): 12 (15.8) n (%)
Insomnia: patients with ≧Grade 3 event ([1]; 76 patients): 0 (0.0) n (%)
Musculoskeletal chest pain: patients with Grade 1 or 2 event ([1]; 76 patients): 11 (14.5) n (%)
Musculoskeletal chest pain: patients with any event ([1]; 76 patients): 13 (17.1) n (%)
Musculoskeletal chest pain: patients with ≧Grade 3 event ([1]; 76 patients): 3 (3.9) n (%)
Myalgia: patients with Grade 1 or 2 event ([1]; 76 patients): 18 (23.7) n (%)
Myalgia: patients with any event ([1]; 76 patients): 19 (25.0) n (%)
Myalgia: patients with ≧Grade 3 event ([1]; 76 patients): 1 (1.3) n (%)
Nausea: patients with Grade 1 or 2 event ([1]; 76 patients): 41 (53.9) n (%)
Nausea: patients with any event ([1]; 76 patients): 43 (56.6) n (%)
Nausea: patients with ≧Grade 3 event ([1]; 76 patients): 6 (7.9) n (%)
Pyrexia: patients with Grade 1 or 2 event ([1]; 76 patients): 12 (15.8) n (%)
Pyrexia: patients with any event ([1]; 76 patients): 12 (15.8) n (%)
Pyrexia: patients with ≧Grade 3 event ([1]; 76 patients): 0 (0.0) n (%)
Urine colour abnormal: patients with Grade 1 or 2 event ([1]; 76 patients): 22 (28.9) n (%)
Urine colour abnormal: patients with any event ([1]; 76 patients): 22 (28.9) n (%)
Urine colour abnormal: patients with ≧Grade 3 event ([1]; 76 patients): 0 (0.0) n (%)
Vision blurred: patients with Grade 1 or 2 event ([1]; 76 patients): 12 (15.8) n (%)
Vision blurred: patients with any event ([1]; 76 patients): 12 (15.8) n (%)
Vision blurred: patients with ≧Grade 3 event ([1]; 76 patients): 0 (0.0) n (%)
Vomiting: patients with Grade 1 or 2 event ([1]; 76 patients): 25 (32.9) n (%)
Vomiting: patients with any event ([1]; 76 patients): 28 (36.8) n (%)
Vomiting: patients with ≧Grade 3 event ([1]; 76 patients): 6 (7.9) n (%)
deaths on study considered related to study drug ([1]; 76 patients): Three
patients who discontinued therapy for adverse events ([1]; 76 patients): 14%
patients with dose reductions for toxicity ([1]; 76 patients): 12%
bilirubin elevation ([1]; Grade 3 or 4): No Grade 3 or 4 bilirubin elevation
ALT elevations ([1]; Grade 3 or greater): 7%
AST elevations ([1]; Grade 3 or greater): 9%
alkaline phosphatase elevations ([1]; Grade 3 or greater): 5%
tolerability ([1]; IPI-504 monotherapy, hydrochloride): generally well tolerated
alanine aminotransferase (ALT) elevations ([1]; any grade): 41%
alkaline phosphatase elevations ([1]; any grade): 62%
aspartate aminotransferase (AST) elevations ([1]; any grade): 49%
ALT (liver function test): patients with Grade 1 or 2 event [1, 2]: 26 (34.2) n (%)
ALT (liver function test): patients with any event [1, 2]: 31 (40.8) n (%)
ALT (liver function test): patients with ≧Grade 3 event [1, 2]: 5 (6.6) n (%)
AST (liver function test): patients with Grade 1 or 2 event [1, 2]: 30 (39.5) n (%)
AST (liver function test): patients with any event [1, 2]: 37 (48.7) n (%)
AST (liver function test): patients with ≧Grade 3 event [1, 2]: 7 (9.2) n (%)
Alkaline phosphatase (liver function test): patients with Grade 1 or 2 event [1, 2]: 43 (56.6) n (%)
Alkaline phosphatase (liver function test): patients with any event [1, 2]: 47 (61.8) n (%)
Alkaline phosphatase (liver function test): patients with ≧Grade 3 event [1, 2]: 4 (5.3) n (%)
Total bilirubin (liver function test): patients with Grade 1 or 2 event [1, 2]: 3 (3.9) n (%)
Total bilirubin (liver function test): patients with any event [1, 2]: 3 (3.9) n (%)
Total bilirubin (liver function test): patients with ≧Grade 3 event [1, 2]: 0 (0.0) n (%)
transient, non-toxic purple-colored urine ([1]; share of patients): About a third
